Patent publication US10428080B2, “TBK/IKK inhibitor compounds and uses thereof” (Merck Patent GmbH, priority 2015, dated 2019)
Where a name gives a salt, the structure may show the parent alone.

Legend:
TBK1 = biological target: T1, TBK1 (Homo sapiens, UniProt Q9UHD2); test: TBK Biochemical Assay; details: read-out: TBK1 IC50
T1 sequence (Q9UHD2 1-729): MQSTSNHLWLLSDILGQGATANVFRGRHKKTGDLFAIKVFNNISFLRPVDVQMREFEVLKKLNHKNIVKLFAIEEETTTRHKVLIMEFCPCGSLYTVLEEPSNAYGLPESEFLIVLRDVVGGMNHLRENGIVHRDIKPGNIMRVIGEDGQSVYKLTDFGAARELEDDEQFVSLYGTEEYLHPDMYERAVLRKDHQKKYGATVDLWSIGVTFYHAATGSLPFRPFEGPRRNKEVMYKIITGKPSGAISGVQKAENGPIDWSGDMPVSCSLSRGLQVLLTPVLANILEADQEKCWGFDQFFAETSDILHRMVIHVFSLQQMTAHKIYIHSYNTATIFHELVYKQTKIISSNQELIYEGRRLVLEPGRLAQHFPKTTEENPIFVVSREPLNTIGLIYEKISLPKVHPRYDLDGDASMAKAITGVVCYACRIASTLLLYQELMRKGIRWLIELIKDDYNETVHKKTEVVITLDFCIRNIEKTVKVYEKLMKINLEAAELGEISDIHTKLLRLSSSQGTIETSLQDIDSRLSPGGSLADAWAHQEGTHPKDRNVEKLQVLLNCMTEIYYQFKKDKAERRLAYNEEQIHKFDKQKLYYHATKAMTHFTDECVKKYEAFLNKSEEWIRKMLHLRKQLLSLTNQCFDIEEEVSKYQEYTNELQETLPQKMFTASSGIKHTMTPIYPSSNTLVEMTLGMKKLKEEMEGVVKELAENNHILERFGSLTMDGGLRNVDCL
In short: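 TBK1 enzyme and substrate incubated with compounds (10-point 1:4 dilution, top 30 uM final, 1% DMSO) for 90 min at 25° C, then stopped. Substrate/product peaks read by microfluidic mobility-shift (Caliper LabChip); 10 uM staurosporine as full-inhibition control.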

IKKε = biological target: T2, IKKε (Homo sapiens, UniProt Q14164); test: IKKe Biochemical Assay; details: read-out: IKKε IC50
T2 sequence (Q14164 1-716): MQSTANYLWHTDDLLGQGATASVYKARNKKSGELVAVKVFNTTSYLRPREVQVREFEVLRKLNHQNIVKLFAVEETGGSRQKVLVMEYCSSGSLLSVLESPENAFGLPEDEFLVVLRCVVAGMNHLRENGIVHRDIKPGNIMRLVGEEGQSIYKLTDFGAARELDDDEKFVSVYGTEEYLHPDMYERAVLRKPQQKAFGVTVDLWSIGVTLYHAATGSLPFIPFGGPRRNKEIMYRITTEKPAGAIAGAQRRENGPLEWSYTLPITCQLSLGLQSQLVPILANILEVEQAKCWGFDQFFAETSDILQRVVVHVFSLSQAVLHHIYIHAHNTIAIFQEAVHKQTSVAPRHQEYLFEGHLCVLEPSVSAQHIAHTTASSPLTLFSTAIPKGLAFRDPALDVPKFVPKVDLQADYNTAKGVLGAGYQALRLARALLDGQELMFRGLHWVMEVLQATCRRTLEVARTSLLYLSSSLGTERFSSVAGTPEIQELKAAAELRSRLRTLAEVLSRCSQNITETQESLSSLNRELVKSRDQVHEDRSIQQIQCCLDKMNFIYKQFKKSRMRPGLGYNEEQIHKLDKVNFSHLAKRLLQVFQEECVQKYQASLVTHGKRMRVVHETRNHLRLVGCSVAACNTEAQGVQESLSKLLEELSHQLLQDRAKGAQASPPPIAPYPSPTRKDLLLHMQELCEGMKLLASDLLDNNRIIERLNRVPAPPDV
In short: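 Recombinant IKKε and substrate were incubated with compound (10-point 1:4 series, top 30 uM final, 1% DMSO) for 90 min at 25° C, then stopped. Substrate-to-product conversion was read by LabChip microfluidic mobility shift; 10 uM staurosporine served as full-inhibition wells.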

[1] = tested on: phosphorylation of the IRF-3 protein in MDA-MB-468 cells; test: pIRF3 immunocytochemistry cell based assay; details: Homo sapiens; MDA-MB-468 cells, Poly(I:C) stimulation; read-out: pIRF3 IC50
In short: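 MDA-MB-468 cells got compounds (10-point, 3-fold from 10 uM) for 1 h at 37 °C, then 10 ug/ml Poly(I:C) for 2 h. Fixed, permeabilized cells were immunostained for pIRF3 with AlexaFluor488 and counterstained with PI. % phosphorylation was read by laser scanning cytometry, and IC50 curves were fitted.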

Structure (SMILES) | IC50 (TBK1) | IC50 (IKKε) | IC50 [1]
COc1cc(C(=O)N(C)C)ccc1-c1cc2nccc(-c3ccc(OC4CCCNC4)c(C#N)c3)c2o1 (stereo not drawn) [Compound 140, 4-{7-[3-Cyano-4-(piperidin-3-yloxy)-phenyl]-furo[3,2-b]pyridin-2-yl}-3-methoxy-N,N-dimethyl-benzamide Hydrochloride] | < 100 nM | < 100 nM | < 100 nM
N#Cc1cc(-c2ccnc3cc(-c4ccc(C(=O)N[C@@H]5CNCC[C@H]5F)cc4)oc23)ccc1OC1CCOCC1 [Compound 141, 4-{7-[3-Cyano-4-(tetrahydro-pyran-4-yloxy)-phenyl]-furo[3,2-b]pyridin-2-yl}-N-((3R,4R)-4-fluoro-piperidin-3-yl)-benzamide] | < 100 nM | < 100 nM | 100 to 1000 nM
N#Cc1cc(-c2ccnc3cc(-c4cccc(C(=O)NC5CN6CCC5CC6)c4)oc23)ccc1OC1CCOCC1 (stereo not drawn) [Compound 143] | < 100 nM | < 100 nM | 100 to 1000 nM
N#Cc1cc(-c2ccnc3cc(-c4ccc(C(=O)NC5CN6CCC5CC6)cc4)oc23)ccc1OC1CCOCC1 (stereo not drawn) [Compound 145, N-(1-Aza-bicyclo[2.2.2]oct-3-yl)-4-{7-[3-cyano-4-(tetrahydro-pyran-4-yloxy)-phenyl]-furo[3,2-b]pyridin-2-yl}-benzamide] | < 100 nM | < 100 nM | 100 to 1000 nM
COc1cc(C(=O)NC2CN3CCC2CC3)ccc1-c1cc2nccc(-c3ccc(N4CC[C@@H](F)C4)c(C#N)c3)c2o1 (stereo partly drawn) [Compound 146, N-(1-Aza-bicyclo[2.2.2]oct-3-yl)-4-{7-[3-cyano-4-((R)-3-fluoro-pyrrolidin-1-yl)-phenyl]-furo[3,2-b]pyridin-2-yl}-3-methoxy-benzamide] | < 100 nM | < 100 nM | 100 to 1000 nM
N#Cc1cc(-c2ccnc3cc(-c4ccc(C(=O)N5CCC(F)(F)C5)cc4)oc23)ccc1OC1CCOCC1 [Compound 148, 5-{2-[4-(3,3-Difluoro-pyrrolidine-1-carbonyl)-phenyl]-furo[3,2-b]pyridin-7-yl}-2-(tetrahydro-pyran-4-yloxy)-benzonitrile] | < 100 nM | < 100 nM | 1000 to 5000 nM
COc1cc(C(=O)N(C)C)ccc1-c1cc2nccc(-c3ccc(OC4CCN(C)C4)c(C#N)c3)c2o1 (stereo not drawn) [Compound 149, 4-{7-[3-Cyano-4-(1-methyl-pyrrolidin-3-yloxy)-phenyl]-furo[3,2-b]pyridin-2-yl}-3-methoxy-N,N-dimethyl-benzamide] | < 100 nM | < 100 nM | 100 to 1000 nM
COc1cc(C(=O)N(C)C)ccc1-c1cc2nccc(-c3ccc(OC4CCN(C)CC4)c(C#N)c3)c2o1 [Compound 150, 4-{7-[3-Cyano-4-(1-methyl-piperidin-4-yloxy)-phenyl]-furo[3,2-b]pyridin-2-yl}-3-methoxy-N,N-dimethyl-benzamide] | < 100 nM | < 100 nM | 100 to 1000 nM
COc1cc(C(=O)N(C)C)ccc1-c1cc2nccc(-c3ccc(O[C@@H]4CCNC[C@@H]4F)c(C#N)c3)c2o1 [Compound 153, 4-{7-[3-Cyano-4-((3S,4R)-3-fluoro-piperidin-4-yloxy)-phenyl]-furo[3,2-b]pyridin-2-yl}-3-methoxy-N,N-dimethyl-benzamide hydrochloride] | < 100 nM | < 100 nM | 100 to 1000 nM
CC(=O)Nc1ccc(-c2cc3nccc(-c4ccc(OC5CCOCC5)c(C#N)c4)c3o2)cc1 [Compound 154] | < 100 nM | < 100 nM | 1000 to 5000 nM
COc1cc(C(=O)N(C)C)ccc1-c1cc2nccc(-c3ccc(OCC4CCNCC4)c(C#N)c3)c2o1 [Compound 155, 4-{7-[3-Cyano-4-(piperidin-4-ylmethoxy)-phenyl]-furo[3,2-b]pyridin-2-yl}-3-methoxy-N,N-dimethyl-benzamide] | < 100 nM | < 100 nM | 100 to 1000 nM
